The results in this text go back to patent publication US20240368120A1 (Terns Pharmaceuticals, Inc., priority 2023, published 2024).

The target of series [1] is T1, human GLP-1R receptor (Homo sapiens, UniProt P43220).
T1 construct: expressed in transfected cells
As to the kind of experiment: GLP-1R low expression cell assay (cAMP TR-FRET, CHO-K1_hGLP-1Rlow_clone10 cells). The format is cell-based. To be noted: for EC50: cAMP TR-FRET, 30 min at 25° C.; for Emax: maximum activation relative to control GLP-1 peptide agonist. The method, boiled down: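 Readout is cAMP TR-FRET after 30 min compound stimulation at 25 °C of a low-GLP-1R-expressing CHO-K1 clone (1,000 cells/well), with 10-point 3-fold serial dilutions. Percent activation versus a control GLP-1 peptide, from duplicates, was Hill-fitted to give EC50.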
For orientation: TR-FRET usually uses a lanthanide donor and a delayed reading to cut background.

Series [2] can be described thus: Rat pharmacokinetics, oral dosing. It is filed as in vivo, Sprague-Dawley rats. To be noted: male, Sprague-Dawley, oral dosing at 3 mg/kg, plasma; for half-life: read-out: Rat T1/2. As for the experimental part:
Intravenous dosing: Compounds were formulated at 1.0 mg/mL in a solution comprising 5% polyethylene glycol 400 and 95% (12% (w/v) sulfobutyl-β-cyclodextrin in water) (v/v). Formulated compounds were sterile filtered through a 0.22 micron filter before dosing. Compounds were administered to male, 7-11-week-old Sprague-Dawley rats by jugular vein cannula infusion over 30 minutes at a dose of 1 mg/kg. Oral dosing: Compounds were formulated at 1.0 mg/mL in a solution comprising 5% polyethylene glycol 400 and 95% (12% (w/v) sulfobutyl-β-cyclodextrin in water) (v/v). Formulated compounds were administered to male, 7-11 week old Sprague-Dawley rats by oral gavage at a dose of 10 mg/kg or 3 mg/kg.
Sample collection: Blood collections of about 0.2 mL per time point were performed from jugular vein or other suitable site of each animal, into pre-chilled commercial EDTA-K2 tubes and placed on wet ice until centrifugation. Blood samples were processed for plasma by centrifugation at approximately 4° C., 3,200 g for 10 min. Plasma was collected and transferred into pre-labeled 96 well plate or polypropylene tubes, quick frozen over dry ice and kept at −60° C. or lower until
Data analysis: Plasma concentration versus time data was plotted in graph and analyzed by non-compartmental approaches using the Phoenix WinNonlin 6.3 software program. Related PK parameters were calculated according to dosing route, e.g., CL, Vdss and C0 for intravenous administration, Cmax, Tmax or % F for extravascular administration, and T1/2, AUC(0-t), AUC(0-inf), MRT(0-t), MRT(0-inf) for all routes.

Where only a bound is given, the exact number is not on record here.

T1 sequence (P43220 24-463): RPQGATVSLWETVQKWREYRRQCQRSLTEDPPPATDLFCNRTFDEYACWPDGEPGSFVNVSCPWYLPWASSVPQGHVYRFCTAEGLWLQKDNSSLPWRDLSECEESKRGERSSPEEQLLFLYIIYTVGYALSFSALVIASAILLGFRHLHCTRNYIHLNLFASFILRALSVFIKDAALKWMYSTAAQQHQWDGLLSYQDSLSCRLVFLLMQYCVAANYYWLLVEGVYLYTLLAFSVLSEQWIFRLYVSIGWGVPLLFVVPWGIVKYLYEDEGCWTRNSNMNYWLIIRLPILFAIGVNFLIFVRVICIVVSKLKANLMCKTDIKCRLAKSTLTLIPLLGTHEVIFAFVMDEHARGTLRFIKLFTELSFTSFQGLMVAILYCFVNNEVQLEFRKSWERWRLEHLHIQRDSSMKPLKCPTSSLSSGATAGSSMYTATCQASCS

With `COc1cc(C(=O)O)cc2c1nc(CN1CCC(c3cccc(OCc4ccc(Cl)cc4F)n3)CC1)n2C` [Compound 249, 2-((4-(6-((4-Chloro-2-fluorobenzyl)oxy)pyridin-2-yl)piperidin-1-yl)methyl)-4-methoxy-1-methyl-1H-benzo[d]imidazole-6-carboxylic acid], in series [1], the EC50 (usually the midpoint of the concentration-response curve) is < 10 nM and the Emax – broadly, the greatest response seen or fitted, relative to the assay's reference – is > 85%. Further, in series [2], the Cmax (as a rule, the highest concentration seen after dosing) was > 5000 ng/mL; the half-life lay in the range of 1.5 to 2.5 h; the bioavailability – broadly, the share of a dose that reaches the circulation, judged against a reference dose that is usually intravenous – is > 85%.
For `C[C@]1(c2ccc(Cl)cn2)Oc2cccc(C3CCN(Cc4nc5c(OCCF)cc(C(=O)O)cc5n4C[C@@H]4CCO4)CC3)c2O1` [Compound 81, 2-((4-((S)-2-(5-Chloropyridin-2-yl)-2-methylbenzo[d][1,3]dioxol-4-yl)piperidin-1-yl)methyl)-4-(2-fluoroethoxy)-1-(((S)-oxetan-2-yl)methyl)-1H-benzo[d]imidazole-6-carboxylic acid], in series [1], the EC50 is < 10 nM and the maximum response (Emax) is > 85%. In series [2], the AUC (commonly the area under the concentration-time curve, a measure of exposure) is < 500 ng·h/mL; the Cmax is < 500 ng/mL; the half-life was ≥ 2.5 h; the bioavailability was < 25%.
As for `C[C@]1(c2ccc(Cl)cn2)Oc2cccc(C3CCN(Cc4nc5c(OCC6COC6)cc(C(=O)O)cc5n4C[C@@H]4CCO4)CC3)c2O1` [Compound 77, 2-((4-((S)-2-(5-chloropyridin-2-yl)-2-methylbenzo[d][1,3]dioxol-4-yl)piperidin-1-yl)methyl)-1-(((S)-oxetan-2-yl)methyl)-4-(oxetan-3-ylmethoxy)-1H-benzo[d]imidazole-6-carboxylic acid], in series [1], the EC50 is < 10 nM and the Emax was > 85%. Further, in series [2], the AUC was < 500 ng·h/mL, the Cmax is < 500 ng/mL and the bioavailability was < 25%.
As for `CC(F)(F)c1cc(C(=O)O)cc2c1nc(CN1CCC(c3cccc4c3O[C@](C)(c3ccc(Cl)cn3)O4)CC1)n2C[C@@H]1CCO1` [Compound 71, 2-((4-((R)-2-(5-Chloropyridin-2-yl)-2-methylbenzo[d][1,3]dioxol-4-yl)piperidin-1-yl)methyl)-4-(1,1-difluoroethyl)-1-(((S)-oxetan-2-yl)methyl)-1H-benzo[d]imidazole-6-carboxylic acid], in series [1], the EC50 was in the range of 10 to 100 nM and the Emax was > 85%. Also, in series [2], the AUC was 500 to 2500 ng·h/mL, the Cmax was in the range of 500 to 1000 ng/mL, the half-life is < 1.5 h and the bioavailability lay within 25 to 50%.
On to `C[C@]1(c2ccc(Cl)cn2)Oc2cccc(C3CCN(Cc4nc5c(OC(F)F)cc(C(=O)O)cc5n4C[C@@H]4CCO4)CC3)c2O1` [Compound 78, 2-((4-((S)-2-(5-Chloropyridin-2-yl)-2-methylbenzo[d][1,3]dioxol-4-yl)piperidin-1-yl)methyl)-4-(difluoromethoxy)-1-(((S)-oxetan-2-yl)methyl)-1H-benzo[d]imidazole-6-carboxylic acid], for which, in series [1], the EC50 was < 10 nM and the Emax is > 85%. Moreover, in series [2], the area under the curve (AUC) was < 500 ng·h/mL, the Cmax is < 500 ng/mL, the half-life lay within 1.5 to 2.5 h and the bioavailability is 25 to 50%.
For `Cn1c(CN2CCC(c3cccc(OCc4ccc(Cl)cc4F)n3)CC2)nc2c(O)cc(C(=O)O)cc21` [Compound 307, 2-((4-(6-((4-Chloro-2-fluorobenzyl)oxy)pyridin-2-yl)piperidin-1-yl)methyl)-4-hydroxy-1-methyl-1H-benzo[d]imidazole-6-carboxylic acid], in series [1], the EC50 lay in the range of 10 to 100 nM and the Emax is > 85%. Besides, in series [2], the AUC was < 500 ng·h/mL, the Cmax is < 500 ng/mL, the half-life was ≥ 2.5 h and the bioavailability lay in the range of 25 to 50%.
Consider `COc1cc(C(=O)O)cc2c1nc(CN1CC[C@@H](c3cccc4c3O[C@@](C)(c3ccc(Cl)cn3)O4)[C@@H]3C[C@@H]31)n2C[C@@H]1CCO1` [Compound 89, 2-(((1S,5R,6S)-5-((S)-2-(5-Chloropyridin-2-yl)-2-methylbenzo[d][1,3]dioxol-4-yl)-2-azabicyclo[4.1.0]heptan-2-yl)methyl)-4-methoxy-1-(((S)-oxetan-2-yl)methyl)-1H-benzo[d]imidazole-6-carboxylic acid], for which, in series [1], the EC50 was < 10 nM and the Emax was > 85%. Further, in series [2], the AUC is < 500 ng·h/mL, the maximum concentration (Cmax) is < 500 ng/mL, the half-life was 1.5 to 2.5 h and the bioavailability was 25 to 50%.
For the compound `Cn1c(CN2CCC(c3cccc(OCc4ccc(Cl)cc4F)n3)CC2)nc2c(OC(F)F)cc(C(=O)O)cc21` [Compound 136, 2-((4-(6-((4-Chloro-2-fluorobenzyl)oxy)pyridin-2-yl)piperidin-1-yl)methyl)-4-(difluoromethoxy)-1-methyl-1H-benzo[d]imidazole-6-carboxylic acid], in series [1], the EC50 is < 10 nM and the Emax is > 85%. Also, in series [2], the Cmax is > 5000 ng/mL, the half-life was ≥ 2.5 h and the bioavailability was > 85%.
As for `CCOc1cc(C(=O)O)cc2c1nc(CN1CCC(c3cccc(OCc4ccc(C#N)cc4F)n3)CC1)n2C` [Compound 298, 2-((4-(6-((4-Cyano-2-fluorobenzyl)oxy)pyridin-2-yl)piperidin-1-yl)methyl)-4-ethoxy-1-methyl-1H-benzo[d]imidazole-6-carboxylic acid], in series [1], the EC50 was < 10 nM and the Emax is > 85%. In series [2], the AUC was 500 to 2500 ng·h/mL, the Cmax is 1000 to 2000 ng/mL, the half-life is ≥ 2.5 h and the bioavailability lay within 25 to 50%.
Turning to `[2H]C([2H])([2H])Oc1cc(C(=O)O)cc2c1nc(CN1CCC(c3cccc(OCc4ccc(Cl)cc4F)n3)CC1)n2C` [Compound 207, 2-((4-(6-((4-chloro-2-fluorobenzyl)oxy)pyridin-2-yl)piperidin-1-yl)methyl)-4-(methoxy-d3)-1-methyl-1H-benzo[d]imidazole-6-carboxylic acid], in series [1], the EC50 is < 10 nM and the Emax is > 85%. Besides, in series [2], the Cmax was > 5000 ng/mL, the half-life was in the range of 1.5 to 2.5 h and the bioavailability was 50 to 85%.
For `Cn1c(CN2CCC(c3cccc4c3O[C@@](C)(c3ccc(Cl)cn3)O4)CC2)nc2c(OC(F)F)cc(C(=O)O)cc21` [Compound 83, (S)-2-((4-(2-(5-Chloropyridin-2-yl)-2-methylbenzo[d][1,3]dioxol-4-yl)piperidin-1-yl)methyl)-4-(difluoromethoxy)-1-methyl-1H-benzo[d]imidazole-6-carboxylic acid], in series [1], the EC50 is < 10 nM and the Emax was > 85%. In addition, in series [2], the AUC fell in the range of 2500 to 10000 ng·h/mL, the Cmax lay in the range of 2000 to 5000 ng/mL, the half-life is ≥ 2.5 h and the bioavailability was > 85%.
Consider `COc1cc(C(=O)O)cc2c1nc(N(C)[C@H]1CC[C@H](c3cccc4c3O[C@@](C)(c3ccc(Cl)cn3)O4)CC1)n2C[C@@H]1CCO1` [Compound 80, 2-(((1S,4S)-4-((S)-2-(5-Chloropyridin-2-yl)-2-methylbenzo[d][1,3]dioxol-4-yl)cyclohexyl)(methyl)amino)-4-methoxy-1-(((S)-oxetan-2-yl)methyl)-1H-benzo[d]imidazole-6-carboxylic acid], for which, in series [1], the EC50 is < 10 nM and the Emax is > 85%. Moreover, in series [2], the AUC is < 500 ng·h/mL, the Cmax was < 500 ng/mL, the half-life was ≥ 2.5 h and the bioavailability is < 25%.
Turning to `Cn1c(CN2CCC(c3cccc4c3OC(c3ccc(Cl)cc3F)C=C4)CC2)nc2c(OC(F)F)cc(C(=O)O)cc21` (single isomer, unassigned) [Compound 176], the EC50 in series [1] is 100 to 1000 nM. Moreover, in series [2], the AUC was 500 to 2500 ng·h/mL, the Cmax is < 500 ng/mL, the half-life was < 1.5 h and the bioavailability fell in the range of 25 to 50%.
For the compound `C[C@@]1(c2ccc(Cl)cn2)Oc2cccc(C3CCN(Cc4nc5c(OC6CC6)cc(C(=O)O)cc5n4Cc4cncs4)CC3)c2O1` [Compound 7, (R)-2-((4-(2-(5-chloropyridin-2-yl)-2-methylbenzo[d][1,3]dioxol-4-yl)piperidin-1-yl)methyl)-4-cyclopropoxy-1-(thiazol-5-ylmethyl)-1H-benzo[d]imidazole-6-carboxylic acid], in series [1], the EC50 lay in the range of 10 to 100 nM and the Emax was > 85%. Besides, in series [2], the AUC was < 500 ng·h/mL, the Cmax was < 500 ng/mL, the half-life was ≥ 2.5 h and the bioavailability was < 25%.
